Marks after values point to notes of the source that are not given here.
Key:
[1] = tested on: SY5Y neuroblastoma cell line; assay: Induction of apoptosis / DNA fragmentation
refractory neoplasms = assay: Tumor response in patients with refractory neoplasms; type: in vivo, human
Experimental: Three patients with refractory neoplasms (breast, melanoma, adenocarcinoma, of unknown primary) have been enrolled and completed 1-2 cycles of arginine butyrate as a dose of 500 mg/kg/day over 6-8 hours for 10 days.
Three patients (with breast cancer, bowel cancer or Hodgkins disease) have completed two cycles of arginine butyrate at a dose of 750 mg/kg/day for 10 days. […] Otherwise, there was no other objective measures of organ progressed after treatment was topped. […] There was a further resolution of the disease during the second cycle. Disease progression was noted one month after second cycle was completed. At 1000 mg/kg/day, 3 patients have been enrolled on study.
An inter-group dose-escalation study is being conducted in patients with refractory malignancies. There are 3 patients per group with the dose levels starting at 500 mg/kg/day, and increasing by 250 mg/kg/day per group, if toxicity permits. Doses are given by 8 hour IV infusion, daily, for 5 days times 2 weeks, with weekends off, for a total of 10 days of treatment per cycle.

[2] = tested on: HLA antigens in K562 cells; settings: one hour of exposure to 1 mM
Experimental: HLA Induction: Arginine butyrate was tested for its ability to induce expression of HLA antigens in K562 cells, a human erythroleukemia cell line.

K562 = assay: DNA fragmentation by flow cytometry; type: cell-based, human; settings: alone, FIG. 3
Description: It has been shown that sodium butyrate can induce apoptosis in human tumors or tumor cell lines (L. A. Noorduyn et al., Histopathology 21:59, 1992).

[3] = tested on: SW900 (non-small cell lung cancer); assay: Survival fraction after 72 hours exposure (MTT assay); type: cell-based, human
Experimental: (§1) Growth inhibition was measured by the MTT assay. Survival fraction is calculated from at least 3 experiments, and differences in survival fraction are statistically significant P<0.05, using the Paired Two-Sample For Means T-Test. […] PC-3=prostate cancer; A549=non-small cell cancer; OvCar=ovarian cancer; CaCo=colon cancer; MCF-7=breast cancer; and SW900=non-small cell lung cancer.

PC-3 (prostate cancer) = assay: as above; type: cell-based, human
Experimental: as §1

OvCar (ovarian cancer) = assay: as above; type: cell-based, human
Experimental: as §1

MCF-7 (breast cancer) = assay: as above; type: cell-based, human
Experimental: as §1

SKNSH cells = assay: Induction of apoptosis; type: cell-based, human; settings: FIG. 1b
[4] = tested on: EBV-TK mRNA in P3RH1 (EBV B-cell producer line); assay: EBV-TK mRNA induction in lymphoma cell lines; type: cell-based, human; settings: 12 hours, 3 mM
Experimental: (§2) Because of arginine butyrate's ability to induce various genes, its ability to induce EBV-TK mRNA in human lymphoma cell lines was evaluated. FIG. 7 provides bar graphs of the basal levels of TK and the levels following 12 hours of incubation with 3 mM arginine butyrate in 3 lymphoma cell lines: X50-7 a latent large cell lymphoma (B cell); P3RH1 an EBV B-cell producer line derived from Burkitt's lymphoma; and Raji a non-producer line derived from a Burkitt's lymphoma. EBV-TK levels were not increased in the EBV non-producer cell line, Raji, which has a high basal level of TK, but were increased approximately 4 fold in an EBV producer cell line and 10 fold in a non-producer cell line.

[5] = tested on: EBV-TK mRNA in X50-7 (latent large cell lymphoma); assay: EBV-TK mRNA induction in lymphoma cell lines; type: cell-based, human; settings: non-producer (latent) line X50-7; 12 hours, 3 mM
Experimental: as §2

[6] = tested on: EBV-TK mRNA in Raji (non-producer line); assay: EBV-TK mRNA induction in lymphoma cell lines; type: cell-based, human; settings: high basal level of TK, 12 hours, 3 mM
Experimental: as §2

Glioblastoma Multiforme = assay: MIC on cell proliferation, 7 days in culture; type: cell-based, human
Experimental: (§3) The ability of arginine butyrate to induce differentiation has been evaluated and is measured by inhibition of growth, in some of the neoplastic cell types previously reported to be sensitive to (sodium) butyric acid, and found arginine butyrate to be as potent as butyric acid. We have also extended that work to additional cell types and found Arginine Butyrate to induce differentiation in these new cell types. Table 1 lists the cell types tested and the minimum inhibitory concentration (MIC) of sodium butyrate (NaB) and arginine butyrate (ArgB) on these cell lines. The MIC is the lowest dose that prevents all growth over the 7 days that the cells are maintained in culture, that is the minimum dose that prevents an increase in cell number. […] The […] of ArgB and NaB were equivalent on all cell lines tested.

Choriocarcinoma (JAR) = assay: MIC on cell proliferation, 7 days in culture; type: cell-based, human
Experimental: as §3

Gastric Carcinoma (AGS) = assay: MIC on cell proliferation, 7 days in culture; type: cell-based, human
Experimental: as §3

[7] = tested on: Colonic Adenocarcinoma (HT29); assay: MIC on cell proliferation, 7 days in culture; type: cell-based, human
Experimental: as §3

Rhabdomyosarcoma = assay: MIC on cell proliferation, 7 days in culture; type: cell-based, human
Experimental: as §3

Osteosarcoma (HOS) = assay: MIC on cell proliferation, 7 days in culture; type: cell-based, human
Experimental: as §3

Erythroleukemia (K562) = assay: MIC on cell proliferation, 7 days in culture; type: cell-based, human
Experimental: as §3

Myeloid Leukemia (HL60) = assay: MIC on cell proliferation, 7 days in culture; type: cell-based, human
Experimental: as §3

IL-2 receptor = assay: Expression of the IL-2 receptor; type: cell-based
Description: The IL-2 receptor is a target for therapies currently under development. For example, antibodies directed to the IL-2 receptor and conjugated to a toxin, are currently being tested in the clinic, and IL-2, itself conjugated to a toxin, is currently being tested in the clinic. […] This increased expression might potentiate the therapies under development.

[8] = tested on: 3 other neuroblastoma cell lines; assay: Growth inhibition over 6 days (RFU); type: cell-based, human; settings: 0.5 and 1.0 mM, FIG. 1a
[9] = Table 3, 0.5 AB (0.5 mM), 72 hours
[10] = Table 4, 0.5 AB (0.5 mM), 72 hour

Question: How did the apoptosis ([1]; FIG. 1c) turn out when arginine butyrate was run?
Answer: induces apoptosis

Question: And the DNA fragmentation ([1]; both 0.5 and 1.0 mM)?
Answer: significant DNA fragmentation was found

Question: And the objective tumor responses (refractory neoplasms; 500 mg/kg/day, three patients, 1-2 cycles)?
Answer: No objective tumor responses were noted

Question: What about the stable disease (refractory neoplasms; 750 mg/kg/day, after two cycles) of the same substance?
Answer: Two patients had stable disease after two cycles

Question: What about the “partial response, reduction in tumor area” value (refractory neoplasms; 750 mg/kg/day, patient with Hodgkin's disease, after first cycle) of the same substance?
Answer: > 80%

Question: What about the HLA expression increase [2] of the same substance?
Answer: more than 20 fold

Question: And the “DNA fragmentation and cellular shrinkage” value (K562)?
Answer: DNA fragmentation and cellular shrinkage

Question: And the “Survival Fraction” value ([3]; Table 4, 0.5 AB (0.5 mM))?
Answer: 0.92

Question: And the “Survival Fraction” value ([3]; Table 4, .05 AB)?
Answer: 0.95

Question: And the “Survival Fraction” value (PC-3 (prostate cancer); [9])?
Answer: 0.67*

Question: What about the “Survival Fraction” value (PC-3 (prostate cancer); [10]) of the same substance?
Answer: 0.74*

Question: And the “Survival Fraction” value (PC-3 (prostate cancer); Table 4, .05 AB, 72 hour)?
Answer: 0.82*

Question: What about the “Survival Fraction” value (OvCar (ovarian cancer); [9]) of the same substance?
Answer: 0.86**

Question: What about the “Survival Fraction” value (OvCar (ovarian cancer); [10]) of the same substance?
Answer: 0.88*

Question: And the “Survival Fraction” value (OvCar (ovarian cancer); Table 4, .05 AB, 72 hour)?
Answer: 0.96

Question: What about the “Survival Fraction” value (MCF-7 (breast cancer); Table 4, 0.5 AB (0.5 mM)) of the same substance?
Answer: 0.74*

Question: What about the “Survival Fraction” value (MCF-7 (breast cancer); Table 4, .05 AB) of the same substance?
Answer: 0.89*

Question: And the apoptosis (SKNSH cells)?
Answer: induces apoptosis

Question: What about the EBV-TK level increase [4] of the same substance?
Answer: approximately 4 fold

Question: And the EBV-TK level increase [5]?
Answer: ~10 fold

Question: And the EBV-TK levels [6]?
Answer: not increased

Question: What about the MIC (Glioblastoma Multiforme) of the same substance?
Answer: 1,000 μM

Question: What about the MIC (Choriocarcinoma (JAR)) of the same substance?
Answer: 156 µM

Question: And the MIC (Gastric Carcinoma (AGS))?
Answer: 2,000 μM

Question: And the MIC [7]?
Answer: 2,000 μM

Question: And the MIC (Rhabdomyosarcoma)?
Answer: 156 µM

Question: What about the MIC (Osteosarcoma (HOS)) of the same substance?
Answer: 312 µM

Question: And the MIC (Erythroleukemia (K562))?
Answer: 1,250 μM

Question: And the MIC (Myeloid Leukemia (HL60))?
Answer: 78 µM

Question: What about the IL-2 receptor expression (IL-2 receptor) of the same substance?
Answer: increase expression of the IL-2 receptor

Question: And the growth inhibition [8]?
Answer: dose response growth inhibition

From patent US6677302B2, “Compositions and methods for the treatment of viral disorders” (The Trustees of Boston University, priority 1996, dated 2004)
